Reference: PubChem BioAssay (NCI)
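Where inhibition never reached the appropriate level, the endpoint shown equals the highest concentration tested. Otherwise, values were interpolated linearly from a five-concentration, 48-hour dose response in 96-well plates. GI50 marks 50% less growth. TGI: concentration producing complete growth inhibition.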

Tests used:
Test in all cases: NCI-60 cell line screen, 48 h
SR leukemia = tested on: SR leukemia
SK-MEL-28 melanoma = tested on: SK-MEL-28 melanoma
M14 melanoma = tested on: M14 melanoma
HOP-92 NSCLC = tested on: HOP-92 NSCLC
SK-MEL-5 melanoma = tested on: SK-MEL-5 melanoma
UACC-62 melanoma = tested on: UACC-62 melanoma
MDA-MB-468 breast = tested on: MDA-MB-468 breast
OVCAR-4 ovarian = tested on: OVCAR-4 ovarian
CCRF-CEM leukemia = tested on: CCRF-CEM leukemia
HS 578T breast = tested on: HS 578T breast
MDA-MB-435 = tested on: MDA-MB-435
SK-MEL-2 melanoma = tested on: SK-MEL-2 melanoma
HCC-2998 colon = tested on: HCC-2998 colon
OVCAR-5 ovarian = tested on: OVCAR-5 ovarian
MDA-MB-231 breast = tested on: MDA-MB-231 breast
T-47D breast = tested on: T-47D breast
SK-OV-3 ovarian = tested on: SK-OV-3 ovarian
EKVX NSCLC = tested on: EKVX NSCLC
A498 renal = tested on: A498 renal
SF-268 CNS = tested on: SF-268 CNS
DU-145 prostate = tested on: DU-145 prostate
NCI-H23 lung = tested on: NCI-H23 lung
U251 CNS = tested on: U251 CNS
TK-10 renal = tested on: TK-10 renal
SN12C renal = tested on: SN12C renal
NCI-H460 lung = tested on: NCI-H460 lung
MCF7 breast = tested on: MCF7 breast
NCI-H226 lung = tested on: NCI-H226 lung
RXF 393 renal = tested on: RXF 393 renal
PC-3 prostate = tested on: PC-3 prostate
NCI/ADR-RES ovarian = tested on: NCI/ADR-RES ovarian
OVCAR-8 ovarian = tested on: OVCAR-8 ovarian
SF-295 CNS = tested on: SF-295 CNS
K-562 leukemia = tested on: K-562 leukemia
MALME-3M melanoma = tested on: MALME-3M melanoma
IGROV1 ovarian = tested on: IGROV1 ovarian
HL-60(TB) leukemia = tested on: HL-60(TB) leukemia
HT29 colon = tested on: HT29 colon
MOLT-4 leukemia = tested on: MOLT-4 leukemia
COLO 205 colon = tested on: COLO 205 colon
HOP-62 NSCLC = tested on: HOP-62 NSCLC
OVCAR-3 ovarian = tested on: OVCAR-3 ovarian
SF-539 CNS = tested on: SF-539 CNS
SW-620 colon = tested on: SW-620 colon
786-0 renal = tested on: 786-0 renal
A549 NSCLC = tested on: A549 NSCLC
LOX IMVI melanoma = tested on: LOX IMVI melanoma
NCI-H522 lung = tested on: NCI-H522 lung
RPMI-8226 leukemia = tested on: RPMI-8226 leukemia
SNB-19 CNS = tested on: SNB-19 CNS
KM12 colon = tested on: KM12 colon
HCT-116 colon = tested on: HCT-116 colon
CAKI-1 renal = tested on: CAKI-1 renal
BT-549 breast = tested on: BT-549 breast
UACC-257 melanoma = tested on: UACC-257 melanoma
SNB-75 CNS = tested on: SNB-75 CNS
HCT-15 colon = tested on: HCT-15 colon
ACHN renal = tested on: ACHN renal
UO-31 renal = tested on: UO-31 renal

SMILES: COc1cccc(/C=C/c2nc3ccccc3c(=O)n2CC(=O)Nc2ccccc2)c1
- GI50 (SR leukemia): > 100 µM
- TGI (SR leukemia): > 100 µM
- GI50 (SK-MEL-28 melanoma): 61.4 µM
- TGI (SK-MEL-28 melanoma): > 100 µM
- GI50 (M14 melanoma): 12.5 µM
- TGI (M14 melanoma): 56.6 µM
- GI50 (HOP-92 NSCLC): 11 µM
- TGI (HOP-92 NSCLC): 51.3 µM
- GI50 (SK-MEL-5 melanoma): 59.3 µM
- TGI (SK-MEL-5 melanoma): > 100 µM
- GI50 (UACC-62 melanoma): 88.5 µM
- TGI (UACC-62 melanoma): > 100 µM
- GI50 (MDA-MB-468 breast): 9.17 µM
- TGI (MDA-MB-468 breast): > 100 µM
- GI50 (OVCAR-4 ovarian): 6.87 µM
- TGI (OVCAR-4 ovarian): > 100 µM
- GI50 (CCRF-CEM leukemia): > 100 µM
- TGI (CCRF-CEM leukemia): > 100 µM
- GI50 (HS 578T breast): 5.91 µM
- TGI (HS 578T breast): > 100 µM
- GI50 (MDA-MB-435): > 100 µM
- TGI (MDA-MB-435): > 100 µM
- GI50 (SK-MEL-2 melanoma): > 100 µM
- TGI (SK-MEL-2 melanoma): > 100 µM
- GI50 (HCC-2998 colon): > 100 µM
- TGI (HCC-2998 colon): > 100 µM
- GI50 (OVCAR-5 ovarian): 19.3 µM
- TGI (OVCAR-5 ovarian): > 100 µM
- GI50 (MDA-MB-231 breast): 5.97 µM
- TGI (MDA-MB-231 breast): 20.7 µM
- GI50 (T-47D breast): 2.76 µM
- TGI (T-47D breast): 18.6 µM
- GI50 (SK-OV-3 ovarian): 5.87 µM
- TGI (SK-OV-3 ovarian): 40.9 µM
- GI50 (EKVX NSCLC): > 100 µM
- TGI (EKVX NSCLC): > 100 µM
- GI50 (A498 renal): 3.2 µM
- TGI (A498 renal): 14.5 µM
- GI50 (SF-268 CNS): 36.8 µM
- TGI (SF-268 CNS): > 100 µM
- GI50 (DU-145 prostate): > 100 µM
- TGI (DU-145 prostate): > 100 µM
- GI50 (NCI-H23 lung): 8.91 µM
- TGI (NCI-H23 lung): 49.3 µM
- GI50 (U251 CNS): 4.87 µM
- TGI (U251 CNS): 19 µM
- GI50 (TK-10 renal): 9.51 µM
- TGI (TK-10 renal): 30 µM
- GI50 (SN12C renal): 6.58 µM
- TGI (SN12C renal): > 100 µM
- GI50 (NCI-H460 lung): 12.6 µM
- TGI (NCI-H460 lung): > 100 µM
- GI50 (MCF7 breast): 27 µM
- TGI (MCF7 breast): > 100 µM
- GI50 (NCI-H226 lung): 3.22 µM
- TGI (NCI-H226 lung): 15.2 µM
- GI50 (RXF 393 renal): 4.23 µM
- TGI (RXF 393 renal): 50.9 µM
- GI50 (PC-3 prostate): > 100 µM
- TGI (PC-3 prostate): > 100 µM
- GI50 (NCI/ADR-RES ovarian): 7.72 µM
- TGI (NCI/ADR-RES ovarian): 64.9 µM
- GI50 (OVCAR-8 ovarian): 18.8 µM
- TGI (OVCAR-8 ovarian): > 100 µM
- GI50 (SF-295 CNS): 5.23 µM
- TGI (SF-295 CNS): 28.6 µM
- GI50 (K-562 leukemia): > 100 µM
- TGI (K-562 leukemia): > 100 µM
- GI50 (MALME-3M melanoma): 12.1 µM
- TGI (MALME-3M melanoma): 65.7 µM
- GI50 (IGROV1 ovarian): 39.1 µM
- TGI (IGROV1 ovarian): > 100 µM
- GI50 (HL-60(TB) leukemia): > 100 µM
- TGI (HL-60(TB) leukemia): > 100 µM
- GI50 (HT29 colon): > 100 µM
- TGI (HT29 colon): > 100 µM
- GI50 (MOLT-4 leukemia): > 100 µM
- TGI (MOLT-4 leukemia): > 100 µM
- GI50 (COLO 205 colon): > 100 µM
- TGI (COLO 205 colon): > 100 µM
- GI50 (HOP-62 NSCLC): 3.89 µM
- TGI (HOP-62 NSCLC): 14.4 µM
- GI50 (OVCAR-3 ovarian): 17.6 µM
- TGI (OVCAR-3 ovarian): > 100 µM
- GI50 (SF-539 CNS): 7.51 µM
- TGI (SF-539 CNS): 28.5 µM
- GI50 (SW-620 colon): > 100 µM
- TGI (SW-620 colon): > 100 µM
- GI50 (786-0 renal): 3.08 µM
- TGI (786-0 renal): 12.6 µM
- GI50 (A549 NSCLC): 3.81 µM
- TGI (A549 NSCLC): > 100 µM
- GI50 (LOX IMVI melanoma): 5.94 µM
- TGI (LOX IMVI melanoma): > 100 µM
- GI50 (NCI-H522 lung): 31.6 µM
- TGI (NCI-H522 lung): > 100 µM
- GI50 (RPMI-8226 leukemia): > 100 µM
- TGI (RPMI-8226 leukemia): > 100 µM
- GI50 (SNB-19 CNS): 21.7 µM
- TGI (SNB-19 CNS): > 100 µM
- GI50 (KM12 colon): > 100 µM
- TGI (KM12 colon): > 100 µM
- GI50 (HCT-116 colon): 5.48 µM
- TGI (HCT-116 colon): 56 µM
- GI50 (CAKI-1 renal): 4.31 µM
- TGI (CAKI-1 renal): 30.1 µM
- GI50 (BT-549 breast): > 100 µM
- TGI (BT-549 breast): > 100 µM
- GI50 (UACC-257 melanoma): > 100 µM
- TGI (UACC-257 melanoma): > 100 µM
- GI50 (SNB-75 CNS): 3.15 µM
- TGI (SNB-75 CNS): 18.1 µM
- GI50 (HCT-15 colon): 39.9 µM
- TGI (HCT-15 colon): > 100 µM
- GI50 (ACHN renal): 3.47 µM
- TGI (ACHN renal): 12.5 µM
- GI50 (UO-31 renal): 2.89 µM
- TGI (UO-31 renal): 14.1 µM
